Test results as given in patent publication US20090076012A1, “Modulation of pathogenicity” (priority 2002, published 2009).

Test system: bioluminescent sensor strain Escherichia coli MT102 (pSB403)
Test: Biosensor assay: quorum sensing inhibition, bioluminescence of the sensor strain
Type: cell-based
Conditions: Escherichia coli, 4 h, 3oxo-C6-HSL 100 nM; bioluminescence after 4 hours at 30° C.
Procedure: Quorum sensing inhibition of the compounds was investigated with the aid of the bioluminescent sensor strain Escherichia coli MT102 (pSB403) (Winson et al., FEMS Microbiol. Lett. 163:185-92, 1998). Plasmid pSB403 contains the Photobacterium fischeri luxR gene together with the […] promoter region as a transcriptional fusion to the bioluminescence genes luxCDABE of Photorhabdus luminescence.
Inhibitory studies were conducted in a microtitre dish assay as follows: the E. coli sensor strain grown over night in LB medium (Sambrook et al., Molecular Cloning: A Laboratory Manual. 2nd Edn. Cold Spring Harbor Laboratory, New York, 1989) was diluted 1:4 and grown for another 1 hour at 30° C. After addition of 3oxo-C6-HSL (final concentration 100 nM) 100 μl of an exponential culture suspension were filled in the wells of a FluoroNunc Polysorp microtitre dish. The test compounds were added to the culture in different concentrations and bioluminescence was measured after 4 hours of incubation at 30° C. with a Lamda Fluoro 320 Plus reader (Bio-Tek Instruments). Inhibitor-mediated reduction of light emission was correlated with the value obtained without addition of the test compounds. IC50 values (concentration of inhibitor required for 50% inhibition of the signal compared to the signal without inhibitor) were determined by using a fitting function after drawing a graph of the activities of eight different inhibitor concentrations.

| SMILES | IC50 |
| --- | --- |
| COc1c(C(=O)NNC(=O)c2ccco2)csc1Cl [Compound 38, Furan-2-carboxylic acid N′-(5-chloro-4-methoxy-thiophene-3-carbonyl)-hydrazide] | 1 to 50 µM |
| Cn1nc(-c2cccs2)cc1NC(=O)c1cccc(Cl)c1 [Compound 15, 3-Chloro-N-(2-methyl-5-thiophen-2-yl-2H-pyrazol-3-yl)-benzamide] | 1 to 50 µM |
| COC(=O)c1ccsc1NC(=O)c1cnc(Cl)nc1C(F)(F)F [Compound 4, 2-[(2-Chloro-4-trifluoro-methyl-pyrimidine-5-carbonyl)-amino]-thiophene-3-carboxylic acid methyl ester] | > 100 µM |
| O=C(NNC(=O)c1sc2ccccc2c1Cl)c1ccco1 [Compound 41, Furan-2-carboxylic acid N′-(3-chloro-benzo[b]thiophene-2-carbonyl)-hydrazide] | 1 to 50 µM |
| Cc1ccc(C(=O)NNC(=O)c2cccs2)s1 [Compound 54, Thiophene-2-carboxylic acid N′-(5-methyl-thiophene-2-carbonyl)-hydrazide] | 1 to 50 µM |
| CCCCCCC(=O)CC(=O)Nc1oc(C)nc1C#N [Compound 135, 3-Oxo-nonanoic acid (4cyano-2-methyl-oxazol-5-yl)-amide] | 50 to 100 µM |
| CCCCCCC(=O)NNC(=O)c1ccco1 [Compound 89, Furan-2-carboxylic acid N′-heptanoyl-hydrazide] | 1 to 50 µM |
| Cn1nccc1NC(=O)CCCCCBr [Compound 22, 6-Bromo-hexanoic acid (2-methyl-2H-pyrazole-3-yl)-amide] | 1 to 50 µM |
| O=C(NNC(=O)c1sc2ccccc2c1Cl)Nc1cc(Cl)nc(Cl)c1 [Compound 111, 1-(3-Chloro-benzo[b]thiophen-2-carbonyl)-4-(2,6-dichloro-pyridinyl)-semicarbazide] | > 100 µM |
| CCCCCCC(=O)CC(=O)Nc1cc(C)nn1C [Compound 118, 3-Oxo-nonanoic acid (2,5-dimethyl-2H-pyrazol-3-yl)-amide] | > 100 µM |
| CCCCCCCCCC(=O)CC(=O)Nc1cc(C)ns1 [Compound 126, 3-Oxo-dodecanoic acid (3-methyl-isothiazol-5-yl)-amide] | > 100 µM |
| Cc1cc(C(=O)Nc2cccnc2)cc(Cl)n1 [Compound 11, 2-Chloro-6-methyl-N-pyridin-3-yl-iso-nicotinamide] | 1 to 50 µM |
| O=C(CCCCCBr)NNC(=O)c1cccs1 [Compound 78, Thiophene-2-carboxylic acid N′-(6-bromo-hexanoyl)-hydrazide] | 1 to 50 µM |
| CCCCCCCCCC(=O)CC(=O)Nc1cc(C)nn1C [Compound 119, 3-Oxo-dodecanoic acid (2,5-dimethyl-2H-pyrazol-3-yl)-amide] | > 100 µM |
| O=C(NNc1nccc(C(F)(F)F)n1)c1cccs1 [Compound 25, Thiophene-2carboxylic acid N′-(4-trifluoromethyl-pyrimidin-2-yl)-hydrazide] | 1 to 50 µM |
| CCn1nc(C)c(Br)c1C(=O)NNC(=O)c1scc(C)c1Cl [Compound 72, 4-Bromo-2-ethyl-5-methyl-2H-pyrazole-3-carboxylic acid N′-(3-chloro-4-methylthiophene-2-carbonyl)-hydrazide] | > 100 µM |
| CCCCCCCC(=O)NNC(=O)c1c(C)noc1C [Compound 91, 3,5-Dimethyl-isoxazole-4carboxylic acid N′-octanoyl-hydrazide] | 1 to 50 µM |
| O=C(Nc1ccc(Br)cn1)c1cc(Cl)nc(Cl)c1 [Compound 10] | > 100 µM |
| O=C(NNC(=O)c1sc2ccccc2c1Cl)c1cccs1 [Compound 60, 3-Chloro-benzo[b]thiophene-2-carboxylic acid N′-(thiophene-2-carbonyl)-hydrazide] | 1 to 50 µM |

| SMILES | IC50 |
| --- | --- |
| CCOC(=O)CC(=O)NNC(=O)c1cc2ccccc2s1 [Compound 96, 3-[N′-(Benzo[b]thiophene-2-carbonyl)-hydrazino]-3-oxo-propionic acid ethyl ester] | 50 to 100 µM |
| Cc1csc(C(=O)NNC(=O)Nc2ccc(Br)cc2)c1Cl [Compound 106, 4-(4-Bromo-phenyl)-1-(3-chloro-4-methyl-thiophene-2-carbonyl)-semicarbazide] | 1 to 50 µM |
| Cc1nn(C)c2ncc(C(=O)NNC(=O)c3cccs3)c(Cl)c12 [Compound 63] | > 100 µM |
| Cc1csc(C(=O)NNC(=O)c2ccco2)c1Cl [Compound 36, Furan-2-carboxylic acid N′-(3-chloro-4-methyl-thiophene-2-carbonyl)-hydrazide] | 50 to 100 µM |
| COc1c(C(=O)NNC(=O)c2cccs2)csc1Cl [Compound 50, 5-Chloro-4-methoxy-thiophene-3-carboxylic acid N′-(thiophene-2-carbonyl)-hydrazide] | 50 to 100 µM |
| Cc1csc(C(=O)NNC(=O)c2cccs2)c1Cl [Compound 43, Thiophene-2-carboxylic acid N′-(3-chloro-4-methyl-thiophene-2-carbonyl)-hydrazide] | 1 to 50 µM |
| COc1ccc(NC(=O)c2cncc(Br)c2)cn1 [Compound 9, 5-Bromo-N-(6-methoxy-pyridin-3-yl)-nicotinamide] | > 100 µM |
| O=C(Nc1cccc(C(F)(F)F)c1)c1cnc(Cl)nc1C(F)(F)F [Compound 6, 2-Chloro-4-trifluoromethyl-pyrimidine-5-carboxylic acid (3-trifluoromethyl-phenyl)-amide] | 50 to 100 µM |
| CCCC(=O)NNC(=O)c1cccs1 [Compound 75, Thiophene-2-carboxylic acid N′-butyryl-hydrazide] | 1 to 50 µM |
| O=C(NNC(=O)c1ccc(Cl)s1)Nc1ccccc1CCl [Compound 108, 4(2-Chloro-methyl-phenyl)-1-(5-chloro-thiophene-2-carbonyl)-semicarbazide] | 1 to 50 µM |
| CCCCCCC(=O)CC(=O)Nc1ccnn1CC [Compound 116, 3-Oxo-nonanoic acid (2-ethyl-2H-pyrazol-3-yl)-amide] | > 100 µM |
| O=C(NNC(=O)c1sccc1Cl)c1ccc(Cl)s1 [Compound 58, 3-Chloro-thiophene-2-carboxylic acid N′-(5-chloro-thiophene-2-carbonyl)-hydrazide] | 50 to 100 µM |
| CCCCCCC(=O)NNS(=O)(=O)c1ccc(Cl)s1 [Compound 99, N′-(5-Chloro-thiophen-2-sulfonyl)-heptanoic acid hydrazide] | > 100 µM |
| Cn1nc(-c2cccs2)cc1NC(=O)CCCCCBr [Compound 20, 6-Bromo-hexanoic acid (2-methyl-5-thiophen-2-yl-2H-pyrazol-3-yl)-amide] | 1 to 50 µM |
| CCCCCCCCCCCC(=O)NNC(=O)c1cccs1 [Compound 86, Thiophene-2-carboxylic acid N′-dodecanoyl-hydrazide] | 1 to 50 µM |
| Cc1cc(C(=O)NNc2nccc(C(F)(F)F)n2)n(C)n1 [Compound 26, 2,5-Dimethyl-2H-pyrazole-3-carboxylic acid N′-(4-trifluoromethyl-pyrimidin-2-yl)-hydrazide] | 1 to 50 µM |
| Cn1nc(-c2ccccc2)cc1NC(=O)CCCCCBr [Compound 18, 6-Bromo-hexanoic acid (2-methyl-5-phenyl-2H-pyrazol-3-yl)-amide] | 1 to 50 µM |
| COc1c(C(=O)NNC(=O)c2cccs2)csc1Br [Compound 42, Thiophene-2-carboxylic acid N′-(5-bromo-4-methoxy-thiophene-3-carbonyl)-hydrazide] | 1 to 50 µM |
| CCCC(=O)NNC(=O)c1ccc(Br)s1 [Compound 77, 5-Bromo-thiophene-2-carboxylic acid N′-butyryl-hydrazide] | 1 to 50 µM |
